Reference: patent US6358883B1, “Pesticidal and parasiticidal use of 1-aryl-1-(substituted thio, sulfinyl and sulfonyl)-2-nitroethane compounds” (American Cyanamid Company, priority 1998, dated 2002)

Tests used:
Type in all cases: in vivo
[1] = test system: Diabrotica undecimpunctata howardi, eggs-southern corn rootworm (SCR-Eggs); test: Southern corn rootworm eggs (SCR-Eggs) treated diet test; set-up: key: 0 = no effect; 1 = 10-25% kill; 2 = 26-35% kill; 3 = 36-45% kill; 4 = 46-55% kill; 5 = 56-65% kill; 6 = 66-75% kill; 7 = 76-85% kill; 8 = 86-99% kill; 9 = 100% kill; conditions: mortality after 7 days
How it was run: (§1)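 Eggs of S. eridania or D. undecimpunctata howardi were set on artificial diet pretreated with test solution (10,000 ppm stock in 35% aqueous acetone, water dilutions) and dried. Wells were sealed with vented clear covers, and mortality was scored at day 7.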

[2] = test system: Tetranychus urticae (OP-resistant strain), 2-spotted spider mite (TSM); test: 2-spotted spider mite (TSM) plant dip test; set-up: key: 0 = no effect; 1 = 10-25% kill; 2 = 26-35% kill; 3 = 36-45% kill; 4 = 46-55% kill; 5 = 56-65% kill; 6 = 66-75% kill; 7 = 76-85% kill; 8 = 86-99% kill; 9 = 100% kill; conditions: mortality after 2 days
How it was run: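 Mortality counted 2 days after a 3 s agitated dip of infested Sieva lima bean plants. Compound came from a 10,000 ppm stock in 35% aqueous acetone, with further dilution in water. Each primary leaf carried about 100 OP-resistant mites, allowed to settle ~2 h before dipping.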

[3] = test system: C. elegans (Bristol strain); test: Evaluation of test compounds against C. elegans (motility, 96-well plate); set-up: key: 9=complete kill in 4 hours; 8=complete kill in 24 hours; 7=markedly reduced motility in approximately 95% of worms in 24 hours; 0=normal motility, same as controls; conditions: motility at 4 and 24 hours
How it was run: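 Activity is a semi-quantitative visual score of adult and larval movement, read at 4 h and 24 h post-immersion at 20 °C after gentle tapping. Worms were suspended in Na buffer in wells where compound, dissolved in 80% acetone, had been evaporated.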

[4] = test system: Aphis gossypii, cotton aphid (CA); test: Cotton aphid (CA) cotyledon dip test; set-up: key: 0 = no effect; 1 = 10-25% kill; 2 = 26-35% kill; 3 = 36-45% kill; 4 = 46-55% kill; 5 = 56-65% kill; 6 = 66-75% kill; 7 = 76-85% kill; 8 = 86-99% kill; 9 = 100% kill; conditions: mortality after 5 days
How it was run: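 Mortality was scored 5 days after dipping aphid-infested cotyledons, colonised overnight from a transfer leaf, into water dilutions of a 35% acetone/water compound solution.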

[5] = test system: Spodoptera eridania, 2nd instar larvae, southern armyworm (SAW); test: Southern armyworm (SAW) leaf dip test; set-up: key: 0 = no effect; 1 = 10-25% kill; 2 = 26-35% kill; 3 = 36-45% kill; 4 = 46-55% kill; 5 = 56-65% kill; 6 = 66-75% kill; 7 = 76-85% kill; 8 = 86-99% kill; 9 = 100% kill
How it was run: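 Ten 2nd instar caterpillars feed on a Sieva lima bean leaf that was dipped 3 seconds in test solution (stock 10,000 ppm in 35% acetone/water, water-diluted). Five days later, larvae are assessed for death, feeding reduction or abnormal molting.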

[6] = test system: M. incognita (Root Knot Nematode) larvae; test: Evaluation of test compounds against M. incognita larvae in microtiter plate wells (movement score); conditions: larvae scored for movement after 20-24 hours; further: key: A score of '9' indicates inactive worms with a straight, sticklike morphology; A score of '8' indicates inactive worms with a limp, curled or curved morphology; A score of '7' indicates dead/paralyzed worms after 72 hours
How it was run: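 Scoring is by larval movement: dead or paralyzed worms count as positive, and a "7" means dead/paralyzed at 72 hours. Freshly hatched root-knot larvae (50-65 per well) in buffered S Medium were incubated with compounds under plate sealers for 20-24 h before the first read.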

[7] = test system: Spodoptera eridania, eggs-southern armyworm (SAW-Eggs); test: Southern armyworm eggs (SAW-Eggs) treated diet test; set-up: key: 0 = no effect; 1 = 10-25% kill; 2 = 26-35% kill; 3 = 36-45% kill; 4 = 46-55% kill; 5 = 56-65% kill; 6 = 66-75% kill; 7 = 76-85% kill; 8 = 86-99% kill; 9 = 100% kill; conditions: mortality after 7 days
How it was run: as §1

[8] = test system: Diabrotica virgifera virgifera Leconte, 2nd instar western corn rootworm (WCR); test: Western corn rootworm (WCR) soil test; set-up: key: 0 = no effect; 1 = 10-25% kill; 2 = 26-35% kill; 3 = 36-45% kill; 4 = 46-55% kill; 5 = 56-65% kill; 6 = 66-75% kill; 7 = 76-85% kill; 8 = 86-99% kill; 9 = 100% kill
How it was run: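 Ten 2nd-instar rootworm larvae are placed in jars of moist soil with millet seed and talc treated with 1.25 mg active ingredient (roughly 50 kg/ha) from a 35% acetone-in-water solution. After 5 days mortality is scored, counting missing larvae as dead.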

Structure (SMILES) | SCR Eggs (1000 ppm) rating [1] | TSM (300 ppm) rating [2] | Rating Against C. elegans (150 ppm) [3] | CA (300 ppm) rating [4] | SAW (300 ppm) rating [5] | M. incognita (150 ppm) score [6] | SAW Eggs (300 ppm) rating [7] | WCR (50 ppm) rating [8]
CCCOC(=O)CSC(C[N+](=O)[O-])c1cccc(OC)c1 (racemic) [Example 103] | 0 | 4 (4 = 46-55% kill) | 8 | 0 | 0 | 9 | 0 | 0
CCCOC(=O)CSC(C[N+](=O)[O-])c1ccc2c(c1)OCO2 (racemic) [Example 104] | 0 | 0 | 9 | 0 | 0 | 8 | 0 | 0
CCCOC(=O)CSC(C[N+](=O)[O-])c1ccccc1 (racemic) [Example 105] | 0 | 0 | 9 | 0 | 3 (3 = 36-45% kill) | 0 | 0 | 3 (3 = 36-45% kill)
O=C(CSC(C[N+](=O)[O-])c1ccc2c(c1)OCO2)OCc1ccccc1 (racemic) [Example 106] | 0 | 0 | 8 | 0 | 0 | 0 | 0 | 0
COc1cccc(C(C[N+](=O)[O-])SCC(=O)OCc2ccccc2)c1 (racemic) [Example 107] | 0 | 0 | 0 | 0 | 0 | 0 | 0 | 0
COc1ccc(C(C[N+](=O)[O-])SCC(=O)OCc2ccccc2)cc1 (racemic) [Example 108] | 0 | 0 | 8 | 0 | 0 | 9 | 9 (9 = 100% kill) | 0
O=C(O)CSC(C[N+](=O)[O-])c1ccc2ccccc2c1 (racemic) [Example 109] | 0 | 0 | 9 | 0 | 0 | 0 | 0 | 0
COC(=O)CSC(C[N+](=O)[O-])c1ccc2ccccc2c1 (racemic) [Example 110] | 0 | 0 | 9 | 0 | 0 | 0 | 0 | 0
CCOC(=O)CSC(C[N+](=O)[O-])c1ccc2ccccc2c1 (racemic) [Example 111] | 0 | 0 | 8 | 0 | 0 | 0 | 8 (8 = 86-99% kill) | 0
CCCOC(=O)CSC(C[N+](=O)[O-])c1ccc2ccccc2c1 (racemic) [Example 112] | 0 | 0 | 9 | 0 | 0 | 0 | 8 (8 = 86-99% kill) | 0
CCCCOC(=O)CSC(C[N+](=O)[O-])c1ccc2ccccc2c1 (racemic) [Example 113] | 0 | 0 | 9 | 0 | 3 (3 = 36-45% kill) | 0 | 9 (9 = 100% kill) | 0
O=C(CSC(C[N+](=O)[O-])c1ccc2ccccc2c1)OCc1ccccc1 (racemic) [Example 114] | 0 | 3 (3 = 36-45% kill) | 9 | 0 | 0 | 0 | 9 (9 = 100% kill) | 0
CCCSC(C[N+](=O)[O-])c1ccc2ccccc2c1 (racemic) [Example 115] | 0 | 0 | 0 | 0 | 0 | 0 | 8 (8 = 86-99% kill) | 0
O=[N+]([O-])CC(SCc1ccccc1)c1ccc2ccccc2c1 (racemic) [Example 116] | 0 | 0 | 0 | 0 | 0 | 0 | 0 | 0
COC(=O)CSC(C[N+](=O)[O-])c1ccc(OC(F)(F)F)cc1 (racemic) [Example 117] | 0 | 0 | 8 | 0 | 0 | 0 | 0 | 0
